Source: patent US20250197428A1, “INHIBITORS OF KIF18A AND USES THEREOF” (ACCENT THERAPEUTICS, INC., priority 2022, published 2025)
Like-named read-outs stand apart in the source and are kept apart here.

Columns and labels:
KIF18A = KIF18A (Homo sapiens (Human), UniProt Q8NI77); assay: KIF18A Biochemical Assay (ATPase, ADP-Glo)
OVCAR-3 cells = assay: In vitro anti-proliferative activity assay in cancer cell line OVCAR-3 (CellTiter-Glo, 4- or 7-day); assay type: cell-based; details: Homo sapiens, read-out: OVCAR-3 cellular antiproliferation assay IC50
[1] = system: human megakaryocyte (CFU-MK) progenitors from human bone marrow mononuclear cells; assay: Human megakaryocyte progenitor colony formation assay (CFU-MK); assay type: cell-based; details: 336 h, read-out: Free-fraction adjusted CFU-MK IC50
[2] = Caco-2 permeation assay, bidirectional permeability; assay type: in vitro ADME; details: human, Caco-2, pH 7.4, 5 μM, Papp(B-A)/Papp(A-B)
Method in brief: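 Bidirectional A→B and B→A transport of 5 μM compound in HBSS (10 mM HEPES, pH 7.4), receiver containing 2% BSA, 2 h at 37 °C on 14-day monolayers. Papp from LC-MS/MS peak areas; efflux ratio Papp(B-A)/Papp(A-B), plus recovery. Lucifer Yellow leakage <1% required for monolayer acceptance.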

[3] = In vivo pharmacokinetic evaluation in mouse; parameters: species or system female balb/c nude mice; details: for IV Clearance / Vd: 3 mg/kg IV; for Vd / Cmax / half-life: female, balb/c nude, plasma; for Vd: read-out: IV Vss; for Cmax / half-life: 10 mg/kg PO; for half-life: read-out: PO T1/2 (converted)
[4] = Bone marrow concentration in 28 day OVCAR-3 xenograft study; assay type: in vivo, mice; details: NOD SCID, mouse, 30 mg/kg QD oral, 28 day study
Protocol: On Day 28, tissues were collected from animals. About 30-60 μL of whole blood was collected into tubes containing EDTA anticoagulant, and plasma was harvested by centrifugation at 4,000 g×5 min and stored at −80° C. until analysis. Plasma analysis followed the same protocol as for the Day 1 plasma analysis. Additionally, the femurs of the mice were cut and put in pre-weighed tubes. The bone marrow was harvested by centriguation at 8,000 g×15 min. Then, the total weight of both the bone marrow and the tube was recorded. The bone marrow was stored at −80° C. until analysis.
Samples were collected from animals 6 h after the last dose of compound and at 24 h after the last dose of compound.

OVCAR-3 xenografts = assay: 28 day in vivo efficacy in OVCAR-3 xenografts; parameters: species or system female NOD SCID mice; details: oral
Protocol: Experiments were performed in female NOD SCID mice (GenPharmatech Co.). Animals were allowed to acclimate for 7 days before the study. The general health of the animals were evaluated by a veterinarian, and complete health checks were performed prior to the study. General procedures for animal care and housing were in accordance with the standard, Commission on Life Sciences, National Research Council, Standard Operating Procedures (SOPs) of Pharmaron, Inc. The mice were kept in laminar flow rooms at constant temperature and humidity with 3-5 mice in each cage. Animals were housed in polycarbonate cages which had dimensions of 300×180×150 mm^3 and in an environmentally monitored, well-ventilated room maintained at a temperature of 23±3° C. and a relative humidity of 40%-70%. Fluorescent lighting provided illumination approximately 12 hours per day. Animals had free access to irradiation sterilized dry granule food during the entire study period except for time periods specified by the protocol, as well as sterile drinking water in a bottle that was available ad libitum during the quarantine and study periods.
The OVCAR-3 (ATCC) tumor cell lines were maintained in vitro as a monolayer in RPMI 1640 medium supplemented with 20% heat inactivated FBS, at 37° C. in an atmosphere of 5% CO2 in air. The tumor cells were sub-cultured, not exceeding 4-5 passages, and cells growing in an exponential growth phase were harvested and counted for tumor inoculation. Each mouse was inoculated subcutaneously on the right flank with OVCAR-3 tumor cells (2×10^7) in 0.2 mL of RPMI-1640 with Matrigel (1:1) for model development.
Treatment was started when the mean tumor size reached approximately 150-200 mm^3, at which time the mice were randomized into treatment groups such that the average starting tumor size is similar for each treatment group. Animals were then treated with vehicle or indicated mg/kg (10-100) of compound at a given frequency (e.g., BID, QD, 4 days on treatment followed by 3 days off treatment) by oral gavage at a final dosing volume of 10 mL/kg.
The measurement of tumor size was conducted with a caliper and recorded twice per […] week. The tumor volume (TV) (mm^3) was estimated using the formula: TV=a×b^2/2, where “a” and “b” are long and short diameters of a tumor, respectively.
The TVs were used for calculation of the tumor growth inhibition and tumor growth delay. For the tumor growth inhibition (TGI), the value using the formula: […]
The “TVfinal” and “TVinitial” are the mean tumor volumes on the final day and initial day, respectively.
All statistical tests was conducted on GraphPad, and the level of significance was set at 5% or P<0.05. The group means and standard deviations were calculated for all measurement parameters. Two-way RM ANOVA followed by Tukeys post hoc comparisons of the means was applied among groups.
Additionally, after compound treatment, the animals were observed an additional 28 days without compound treatment.
The initial treatment period with Example 1 was 28 days, after which overall efficacy and tolerability were evaluated based on tumor volume and body weight changes observed during the treatment period (FIG. 2a and FIG. 2b).
The initial treatment period with Example 1 was 28 days, after which overall efficacy and tolerability were evaluated based on tumor volume and body weight changes observed during the treatment period (FIG. 3a and FIG. 3b).

[5] = Tolerability (body weight) in 28 day OVCAR-3 xenograft study; assay type: in vivo; details: all concentrations dosed, 28 day treatment
[6] = 14 days culture, adjusted for binding to assay buffer
[7] = day 28, 100 mg/kg once daily for 4 days followed by 3 days of no dosing

Sequence of KIF18A (Q8NI77 1-367): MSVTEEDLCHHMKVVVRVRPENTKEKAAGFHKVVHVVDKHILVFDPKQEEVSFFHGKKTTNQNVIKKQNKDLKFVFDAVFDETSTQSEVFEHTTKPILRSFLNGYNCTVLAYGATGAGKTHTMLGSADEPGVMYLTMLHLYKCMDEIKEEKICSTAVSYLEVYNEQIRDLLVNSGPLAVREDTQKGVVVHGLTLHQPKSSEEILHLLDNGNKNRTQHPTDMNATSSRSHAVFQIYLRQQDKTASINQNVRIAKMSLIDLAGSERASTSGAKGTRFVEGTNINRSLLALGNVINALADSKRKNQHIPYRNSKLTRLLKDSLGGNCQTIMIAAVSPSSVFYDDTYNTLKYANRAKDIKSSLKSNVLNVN
Sequence of KIF18A (P02550 whole entry partner): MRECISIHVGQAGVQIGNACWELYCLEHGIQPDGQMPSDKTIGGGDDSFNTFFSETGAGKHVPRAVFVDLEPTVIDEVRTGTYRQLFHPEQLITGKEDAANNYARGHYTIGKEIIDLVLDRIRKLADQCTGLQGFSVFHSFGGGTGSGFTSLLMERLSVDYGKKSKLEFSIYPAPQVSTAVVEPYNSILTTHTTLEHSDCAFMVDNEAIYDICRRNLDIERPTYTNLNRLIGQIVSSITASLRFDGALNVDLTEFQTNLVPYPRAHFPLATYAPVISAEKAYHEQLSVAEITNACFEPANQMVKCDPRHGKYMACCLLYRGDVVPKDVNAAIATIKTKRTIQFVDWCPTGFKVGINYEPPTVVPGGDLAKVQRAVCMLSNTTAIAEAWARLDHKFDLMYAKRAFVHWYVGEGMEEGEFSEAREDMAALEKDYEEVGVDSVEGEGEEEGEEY
Sequence of KIF18A (P02554 whole entry partner): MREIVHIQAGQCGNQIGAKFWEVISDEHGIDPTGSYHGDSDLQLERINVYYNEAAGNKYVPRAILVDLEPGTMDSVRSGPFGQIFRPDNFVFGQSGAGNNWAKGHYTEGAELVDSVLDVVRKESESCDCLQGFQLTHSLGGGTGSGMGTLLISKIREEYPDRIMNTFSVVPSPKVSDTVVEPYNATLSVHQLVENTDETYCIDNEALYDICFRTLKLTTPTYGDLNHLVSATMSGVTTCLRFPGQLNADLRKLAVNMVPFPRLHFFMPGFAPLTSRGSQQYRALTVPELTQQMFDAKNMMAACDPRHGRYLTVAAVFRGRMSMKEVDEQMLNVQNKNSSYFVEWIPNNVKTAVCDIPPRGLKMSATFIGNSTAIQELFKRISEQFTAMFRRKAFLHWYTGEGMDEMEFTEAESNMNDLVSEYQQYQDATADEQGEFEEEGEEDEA

Structure (SMILES): Cc1cc(NC(=O)c2cc(F)c(NS(=O)(=O)CCO)cc2N2CC[Si](C)(C)CC2)nc(N2CCC(F)(F)CC2)c1 [Example 107]
- IC50 (KIF18A): < 100 nM
- IC50 (OVCAR-3 cells; OVCAR-3, 168 h, 7-day assay): < 100 nM
- IC50 [1, 6]: 47 nM
- efflux ratio at 2 h, 5 μM [2]: < 10

Structure (SMILES): Cc1cc(NC(=O)c2ccc(NS(=O)(=O)CCO)cc2N2CC[C@@]3(C)C[C@H]3C2)nc(N2CCC(F)(F)CC2)n1 [Example 36]
- IC50 (KIF18A): < 100 nM
- IC50 (OVCAR-3 cells; OVCAR-3, 96 h, 4-day assay): 100 to 500 nM
- IC50 [1, 6]: 82 nM

Structure (SMILES): C[Si]1(C)CCN(c2cc(NS(=O)(=O)CCO)c(F)cc2C(=O)Nc2cccc(N3CCC(F)(F)CC3)n2)CC1 [Example 14]
- IC50 (KIF18A): < 100 nM
- IC50 (OVCAR-3 cells; OVCAR-3, 96 h, 4-day assay): < 100 nM
- IC50 [1]: 61 nM

Structure (SMILES): Cc1cc(NC(=O)c2ccc(NS(=O)(=O)CCO)cc2N2CCC3(CC2)CC3)nc(N2CCC(F)(F)CC2)n1 [Compound A, reference compound]
- IV Clearance [3]: 4.1 mL/ming/kg
- Vd [3]: 2 L/kg
- concentration at 6 h ([4]; read-out: Bone marrow concentration at 6 h post-last dose): 17000 ng/g
- concentration at 24 h ([4]; read-out: Bone marrow concentration at 24 h post-last dose): 4100 ng/g
- IC50 (OVCAR-3 cells; OVCAR-3, 96 h, 4-day assay): < 100 nM

Structure (SMILES): Cc1cc(NC(=O)c2ccc(NS(=O)(=O)CCO)cc2N2CC[Si](C)(C)CC2)nc(C2CCC(F)(F)CC2)n1 [Example 1, N-(2-(4,4-difluorocyclohexyl)-6-methylpyrimidin-4-yl)-2-(4,4-dimethyl-1,4-azasilinan-1-yl)-4-((2-hydroxyethyl)sulfonamido)benzamide]
- IC50 (KIF18A): < 100 nM
- IV Clearance [3]: 3.6 mL/ming/kg
- Vd [3]: 2.7 L/kg
- Cmax [3]: 2900 ng/mL
- half-life [3]: 534 min
- % T/C (OVCAR-3 xenografts; [7]): −2%
- % TGI (OVCAR-3 xenografts; [7]): 102%
- IC50 (OVCAR-3 cells; OVCAR-3, 96 h, 4-day assay): < 100 nM
- Tolerability based on body weight [5]: well tolerated
- IC50 [1, 6]: 17 nM
- efflux ratio at 2 h, 5 μM [2]: < 10

Structure (SMILES): Cc1cc(NC(=O)c2ccc(NS(=O)(=O)CCO)cc2N2CC[Si](C)(C)CC2)nc(N2CCC(F)(F)CC2)n1 [Example 9, N-[2-(4,4-difluoropiperidin-1-yl)-6-methylpyrimidin-4-yl]-2-(4,4-dimethyl-1,4-azasilinan-1-yl)-4-(2-hydroxyethanesulfonamido)benzamide]
- IC50 (KIF18A): 100 to 500 nM
- IV Clearance [3]: 1.7 mL/ming/kg
- Vd [3]: 2.5 L/kg
- Cmax [3]: 3100 ng/mL
- half-life [3]: 870 min
- % T/C (OVCAR-3 xenografts; day 28, 100 mg/kg once daily): −4%
- % TGI (OVCAR-3 xenografts; day 28, 100 mg/kg once daily): 104%
- IC50 (OVCAR-3 cells; OVCAR-3, 96 h, 4-day assay): < 100 nM
- Tolerability based on body weight [5]: well tolerated
- efflux ratio at 2 h, 5 μM [2]: < 10

Structure (SMILES): Cc1cc(NC(=O)c2ccc(NS(=O)(=O)[C@@H](C)CO)cc2N2CC[Si](C)(C)CC2)nc(N2CCC(F)(F)CC2)n1 [Example 112]
- IC50 (KIF18A): < 100 nM
- IC50 (OVCAR-3 cells; OVCAR-3, 168 h, 7-day assay): 100 to 500 nM
- efflux ratio at 2 h, 5 μM [2]: ≥ 10

Structure (SMILES): O=C(Nc1cccc(N2CCC(F)(F)CC2)n1)c1c(F)cc(NS(=O)(=O)CCO)cc1N1CC[C@@]2(C(F)F)C[C@H]2C1 [Example 84]
- IC50 (KIF18A): < 100 nM
- IC50 (OVCAR-3 cells; OVCAR-3, 168 h, 7-day assay): 100 to 500 nM
- efflux ratio at 2 h, 5 μM [2]: < 10

Structure (SMILES): Cc1cc(NC(=O)c2ccc(NS(=O)(=O)N(C)CCO)cc2N2CC[Si](C)(C)CC2)nc(N2CCC(F)(F)CC2)n1 [Example 134]
- IC50 (KIF18A): < 100 nM
- IC50 (OVCAR-3 cells; OVCAR-3, 168 h, 7-day assay): 100 to 500 nM
- efflux ratio at 2 h, 5 μM [2]: < 10

Structure (SMILES): COC[C@@]12CCN(c3cc(NS(=O)(=O)CCO)ccc3C(=O)Nc3cc(C)nc(N4CCC(F)(F)CC4)n3)C[C@@H]1C2 (single isomer, unassigned) [Example 49b]
- IC50 (KIF18A): < 100 nM
- IC50 (OVCAR-3 cells; OVCAR-3, 168 h, 7-day assay): < 100 nM
- efflux ratio at 2 h, 5 μM [2]: < 10

Structure (SMILES): CC1CN(c2nccc(NC(=O)c3ccc(NS(=O)(=O)CCO)cc3N3CC[Si](C)(C)CC3)n2)CCO1 (stereo not shown) [Example 11]
- IC50 (KIF18A): < 100 nM
- IC50 (OVCAR-3 cells; OVCAR-3, 96 h, 4-day assay): < 100 nM
- efflux ratio at 2 h, 5 μM [2]: < 10

Structure (SMILES): C[Si]1(C)CCN(c2cc(NS(=O)(=O)CCO)ccc2C(=O)Nc2cncc(N3CCC(F)(F)CC3)n2)CC1 [Example 108]
- IC50 (KIF18A): < 100 nM
- IC50 (OVCAR-3 cells; OVCAR-3, 168 h, 7-day assay): < 100 nM
- efflux ratio at 2 h, 5 μM [2]: < 10

Structure (SMILES): Cc1cc(NC(=O)c2ccc(NS(=O)(=O)NCCO)cc2N2CC[Si](C)(C)CC2)nc(N2CCC(F)(F)CC2)n1 [Example 117]
- IC50 (KIF18A): 100 to 500 nM
- IC50 (OVCAR-3 cells; OVCAR-3, 168 h, 7-day assay): 100 to 500 nM
- efflux ratio at 2 h, 5 μM [2]: < 10

Structure (SMILES): Cc1cc(NC(=O)c2ccc(S(=O)(=O)NCCO)cc2N2CC[C@@]3(C(F)F)C[C@H]3C2)nc(N2CCC(F)(F)CC2)n1 [Example 78]
- IC50 (KIF18A): < 100 nM
- IC50 (OVCAR-3 cells; OVCAR-3, 168 h, 7-day assay): 100 to 500 nM
- efflux ratio at 2 h, 5 μM [2]: < 10

Structure (SMILES): Cc1cc(NC(=O)c2ccc(NS(C)(=O)=O)cc2N2CC[Si](C)(C)CC2)nc(N2CC(F)(F)C2)c1 [Example 20]
- IC50 (KIF18A): 100 to 500 nM
- IC50 (OVCAR-3 cells; OVCAR-3, 96 h, 4-day assay): 100 to 500 nM
- efflux ratio at 2 h, 5 μM [2]: < 10

Structure (SMILES): Cc1cc(NC(=O)c2ccc(NS(=O)(=O)CCO)cc2N2CC[C@@]3(F)CC[C@H]3C2)nc(N2CCC(F)(F)CC2)n1 (single isomer, unassigned) [Example 50b]
- IC50 (KIF18A): < 100 nM
- IV Clearance [3]: 0.74 mL/ming/kg
- Vd [3]: 0.51 L/kg
- Cmax [3]: 10100 ng/mL
- half-life [3]: 636 min
- IC50 (OVCAR-3 cells; OVCAR-3, 168 h, 7-day assay): 100 to 500 nM
- efflux ratio at 2 h, 5 μM [2]: < 10

Structure (SMILES): Cc1cc(NC(=O)c2c(F)cc(NS(=O)(=O)CCO)cc2N2CC[Si](C)(C)CC2)nc(N2CCC(F)(F)CC2)n1 [Example 110]
- IC50 (KIF18A): < 100 nM
- IC50 (OVCAR-3 cells; OVCAR-3, 168 h, 7-day assay): < 100 nM
- efflux ratio at 2 h, 5 μM [2]: < 10

Structure (SMILES): O=C(Nc1ccnc(N2CCC(F)(F)CC2)n1)c1cc2cnn(CCO)c2cc1N1CCC2(CC1)CC2 [Example 12]
- IC50 (KIF18A): 500 to 1000 nM
- IC50 (OVCAR-3 cells; OVCAR-3, 96 h, 4-day assay): > 1000 nM
- efflux ratio at 2 h, 5 μM [2]: < 10
